Results as given in the supplement of paper PMC12137928.
Where a name gives a salt, the structure may show the parent alone.

Tested on: HCT116
Details: 72 h
Outline: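 HCT116 cells were plated at 250 per well in 1536-well plates and allowed 5 h to attach. CellTiter-Glo luminescence was normalized to vehicle as 0% and positive control as -100%, followed by pattern correction. Four-parameter Hill fits provided IC50 and maximal efficacy.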

CN1[C@H]2CC[C@@H]1[C@@H](C(=O)O)[C@@H](OC(=O)c1ccccc1)C2 [Benzoylecgonine]
IC50 cell viability (ICRF193 0 nM): > 45.8 µM | IC50 cell viability (ICRF193 200 nM): > 45.8 µM

CCN(CC)C(=O)C1CN2CCc3cc(OC)c(OC)cc3C2CC1OC(C)=O (stereo not drawn) [Benzquinamide]
IC50 cell viability (ICRF193 0 nM): > 45.8 µM | IC50 cell viability (ICRF193 200 nM): > 45.8 µM

CN1[C@@H]2CC[C@H]1C[C@@H](OC(c1ccccc1)c1ccccc1)C2 [Benztropine mesylate]
IC50 cell viability (ICRF193 0 nM): > 45.8 µM | IC50 cell viability (ICRF193 200 nM): > 45.8 µM

CN(C)CCCOc1nn(Cc2ccccc2)c2ccccc12 [Benzydamine hydrochloride]
IC50 cell viability (ICRF193 0 nM): > 45.8 µM | IC50 cell viability (ICRF193 200 nM): > 45.8 µM

OCc1ccccc1 [Benzyl alcohol]
IC50 cell viability (ICRF193 0 nM): > 45.8 µM | IC50 cell viability (ICRF193 200 nM): > 45.8 µM

O=C(OCc1ccccc1)c1ccccc1 [Benzyl benzoate]
IC50 cell viability (ICRF193 0 nM): > 45.8 µM | IC50 cell viability (ICRF193 200 nM): > 45.8 µM

O=C(/C=C/c1ccccc1)OCc1ccccc1 [Benzyl cinnamate]
IC50 cell viability (ICRF193 0 nM): > 45.8 µM | IC50 cell viability (ICRF193 200 nM): > 45.8 µM

NS(=O)(=O)c1cc2c(cc1Cl)NC(Cc1ccccc1)NS2(=O)=O (stereo not drawn) [Benzylhydrochlorothiazide]
IC50 cell viability (ICRF193 0 nM): > 45.8 µM | IC50 cell viability (ICRF193 200 nM): > 45.8 µM

O=C(OCc1ccccc1)c1ccc(O)cc1 [Benzylparaben]
IC50 cell viability (ICRF193 0 nM): > 45.8 µM | IC50 cell viability (ICRF193 200 nM): > 45.8 µM

O=C(O)CCCN1CCC(O[C@@H](c2ccc(Cl)cc2)c2ccccn2)CC1 [Bepotastine (Beslilate)]
IC50 cell viability (ICRF193 0 nM): > 45.8 µM | IC50 cell viability (ICRF193 200 nM): > 45.8 µM

COc1c(O)cc2c(c1O)[C@@H]1O[C@H](CO)[C@@H](O)[C@H](O)[C@H]1OC2=O [Bergenin monohydrate]
IC50 cell viability (ICRF193 0 nM): > 45.8 µM | IC50 cell viability (ICRF193 200 nM): > 45.8 µM

N[C@@H]1CCCCN(c2c(F)cc3c(=O)c(C(=O)O)cn(C4CC4)c3c2Cl)C1 [Besifloxacin Hydrochloride]
IC50 cell viability (ICRF193 0 nM): > 45.8 µM | IC50 cell viability (ICRF193 200 nM): > 45.8 µM

CNCCc1ccccn1 [Betahistine mesylate]
IC50 cell viability (ICRF193 0 nM): > 45.8 µM | IC50 cell viability (ICRF193 200 nM): > 45.8 µM

C[N+](C)(C)CC(=O)O [Betaine]
IC50 cell viability (ICRF193 0 nM): > 45.8 µM | IC50 cell viability (ICRF193 200 nM): > 45.8 µM

CCCC(=O)O[C@]1(C(=O)COC(=O)CC)[C@@H](C)C[C@H]2[C@@H]3CCC4=CC(=O)C=C[C@]4(C)[C@@]3(F)[C@@H](O)C[C@@]21C [Betamethasone butyrate propionate]
IC50 cell viability (ICRF193 0 nM): > 45.8 µM | IC50 cell viability (ICRF193 200 nM): > 45.8 µM

CCCCC(=O)O[C@]1(C(=O)CO)[C@@H](C)C[C@H]2[C@@H]3CCC4=CC(=O)C=C[C@]4(C)[C@@]3(F)[C@@H](O)C[C@@]21C [Betamethasone valerate]
IC50 cell viability (ICRF193 0 nM): > 45.8 µM | IC50 cell viability (ICRF193 200 nM): > 45.8 µM

O=C(O)CCNC(=O)c1ccccc1 [Betamipron]
IC50 cell viability (ICRF193 0 nM): > 45.8 µM | IC50 cell viability (ICRF193 200 nM): > 45.8 µM

CC(C[N+](C)(C)C)OC(N)=O (stereo not drawn) [Bethanechol chloride]
IC50 cell viability (ICRF193 0 nM): > 45.8 µM | IC50 cell viability (ICRF193 200 nM): > 45.8 µM

C/N=C(\NC)NCc1ccccc1 [Bethanidine sulfate (2:1)]
IC50 cell viability (ICRF193 0 nM): > 45.8 µM | IC50 cell viability (ICRF193 200 nM): > 45.8 µM

O=C(O)CNC(=O)CNC(=O)CNC(=O)CSC(=O)c1ccccc1 [Betiatide]
IC50 cell viability (ICRF193 0 nM): > 45.8 µM | IC50 cell viability (ICRF193 200 nM): > 45.8 µM

COc1ccc(NC(=O)c2ccc(C(=N)N(C)C)cc2)c(C(=O)Nc2ccc(Cl)cn2)c1 [Betrixaban]
IC50 cell viability (ICRF193 0 nM): > 45.8 µM | IC50 cell viability (ICRF193 200 nM): > 45.8 µM

COc1ccc(CCNCC(O)COc2cccc(C)c2)cc1OC (stereo not drawn) [Bevantolol hydrochloride]
IC50 cell viability (ICRF193 0 nM): > 45.8 µM | IC50 cell viability (ICRF193 200 nM): > 45.8 µM

C[N+]1(C)CCCCC1COC(=O)C(O)(c1ccccc1)c1ccccc1 (stereo not drawn) [Bevonium metilsulfate]
IC50 cell viability (ICRF193 0 nM): > 45.8 µM | IC50 cell viability (ICRF193 200 nM): > 45.8 µM

C=C(c1ccc(C(=O)O)cc1)c1cc2c(cc1C)C(C)(C)CCC2(C)C [Bexarotene]
IC50 cell viability (ICRF193 0 nM): > 45.8 µM | IC50 cell viability (ICRF193 200 nM): > 45.8 µM

CC(C)(Oc1ccc(CCNC(=O)c2ccc(Cl)cc2)cc1)C(=O)O [Bezafibrate]
IC50 cell viability (ICRF193 0 nM): > 45.8 µM | IC50 cell viability (ICRF193 200 nM): > 45.8 µM

C[C@@H](O)[C@H]1C(=O)N2C(C(=O)[O-])=C(SC3Cn4cnc[n+]4C3)[C@H](C)[C@H]12 (stereo partly drawn) [Biapenem]
IC50 cell viability (ICRF193 0 nM): > 45.8 µM | IC50 cell viability (ICRF193 200 nM): > 45.8 µM

CCOC(=O)[C@H](CS)NCCN[C@@H](CS)C(=O)OCC [Bicisate dihydrochloride]
IC50 cell viability (ICRF193 0 nM): > 45.8 µM | IC50 cell viability (ICRF193 200 nM): > 45.8 µM

CCOCCn1c(C2CCN(CCc3ccc(C(C)(C)C(=O)O)cc3)CC2)nc2ccccc21 [Bilastine]
IC50 cell viability (ICRF193 0 nM): > 45.8 µM | IC50 cell viability (ICRF193 200 nM): > 45.8 µM

O=C(COCCOCCOCC(=O)Nc1c(I)cc(I)c(C(=O)O)c1I)Nc1c(I)cc(I)c(C(=O)O)c1I [Biliscopin]
IC50 cell viability (ICRF193 0 nM): > 45.8 µM | IC50 cell viability (ICRF193 200 nM): > 45.8 µM

CCNC(=O)CCC/C=C\C[C@@H]1[C@@H](/C=C/[C@@H](O)CCc2ccccc2)[C@H](O)C[C@@H]1O [Bimatoprost]
IC50 cell viability (ICRF193 0 nM): > 45.8 µM | IC50 cell viability (ICRF193 200 nM): > 45.8 µM

O=C(O)Cc1cccc(-c2cc(CCCCCCc3ccc(O[C@H]4O[C@H](CO)[C@@H](O)[C@H](O)[C@@H]4O)c(-c4cccc(CC(=O)O)c4)c3)ccc2O[C@H]2O[C@H](CO)[C@@H](O)[C@H](O)[C@@H]2O)c1 [Bimosiamose]
IC50 cell viability (ICRF193 0 nM): > 45.8 µM | IC50 cell viability (ICRF193 200 nM): > 45.8 µM

O=C(O)CCCC[C@@H]1SC[C@@H]2NC(=O)N[C@@H]21 [Biotin]
IC50 cell viability (ICRF193 0 nM): > 45.8 µM | IC50 cell viability (ICRF193 200 nM): > 45.8 µM

OC(CCN1CCCCC1)(c1ccccc1)C1CC2C=CC1C2 (stereo not drawn) [Biperiden]
IC50 cell viability (ICRF193 0 nM): > 45.8 µM | IC50 cell viability (ICRF193 200 nM): > 45.8 µM

C/C(=C(\CCOC(=O)c1ccccc1)SS/C(CCOC(=O)c1ccccc1)=C(/C)N(C=O)Cc1cnc(C)nc1N)N(C=O)Cc1cnc(C)nc1N [Bisbentiamine]
IC50 cell viability (ICRF193 0 nM): > 45.8 µM | IC50 cell viability (ICRF193 200 nM): > 45.8 µM

CC(=C(CCOC(=O)C(C)C)SSC(CCOC(=O)C(C)C)=C(C)N(C=O)Cc1cnc(C)nc1N)N(C=O)Cc1cnc(C)nc1N [Bisibutiamine]
IC50 cell viability (ICRF193 0 nM): > 45.8 µM | IC50 cell viability (ICRF193 200 nM): > 45.8 µM

O.O.O=C(O)c1cc(O)c2c(c1)[O][Bi][O]2 [Bismuth(III) gallate basic hydrate]
IC50 cell viability (ICRF193 0 nM): > 45.8 µM | IC50 cell viability (ICRF193 200 nM): > 45.8 µM

CC(C)NCC(O)COc1ccc(COCCOC(C)C)cc1 (stereo not drawn) [Bisoprolol fumarate]
IC50 cell viability (ICRF193 0 nM): > 45.8 µM | IC50 cell viability (ICRF193 200 nM): > 45.8 µM

Cc1ccc(C(=O)Oc2ccc(C(O)CNC(C)(C)C)cc2OC(=O)c2ccc(C)cc2)cc1 (stereo not drawn) [Bitolterol]
IC50 cell viability (ICRF193 0 nM): > 45.8 µM | IC50 cell viability (ICRF193 200 nM): > 45.8 µM

CCN1CCN(c2cc(-c3ccc(F)cc3)c3c(n2)CCCCCC3)CC1 [Blonanserin]
IC50 cell viability (ICRF193 0 nM): > 45.8 µM | IC50 cell viability (ICRF193 200 nM): > 45.8 µM

CC(C)(C)NC(=O)N[C@H](C(=O)N1C[C@H]2[C@@H]([C@H]1C(=O)NC(CC1CCC1)C(=O)C(N)=O)C2(C)C)C(C)(C)C (stereo partly drawn) [Boceprevir]
IC50 cell viability (ICRF193 0 nM): > 45.8 µM | IC50 cell viability (ICRF193 200 nM): > 45.8 µM

CCC(=O)O[C@@H]1C=C2CC[C@@H]3[C@H](CC[C@]4(C)[C@@H](OC(=O)CC)CC[C@@H]34)C2CC1 (stereo partly drawn) [Bolandiol dipropionate]
IC50 cell viability (ICRF193 0 nM): > 45.8 µM | IC50 cell viability (ICRF193 200 nM): > 45.8 µM

C=CCCCCCCCCC(=O)O[C@H]1CC[C@H]2[C@@H]3CCC4=CC(=O)C=C[C@]4(C)[C@H]3CC[C@]12C [Boldenone Undecylenate]
IC50 cell viability (ICRF193 0 nM): > 45.8 µM | IC50 cell viability (ICRF193 200 nM): > 45.8 µM

CC(=O)/C=C/C=C1/C2CCC(C2)C1(C)C (stereo not drawn) [Bornelone]
IC50 cell viability (ICRF193 0 nM): > 45.8 µM | IC50 cell viability (ICRF193 200 nM): > 45.8 µM

COc1ccccc1Oc1c(NS(=O)(=O)c2ccc(C(C)(C)C)cc2)nc(-c2ncccn2)nc1OCCO [Bosentan]
IC50 cell viability (ICRF193 0 nM): > 45.8 µM | IC50 cell viability (ICRF193 200 nM): > 45.8 µM
